Assays:
[1] = test system: rat A2B5+ oligodendrocytes / DRG neuron co-culture; experiment: OPC/DRG co-culture myelination assay (MBP Western blot); type: cell-based; conditions: 13 days co-culture
Protocol: Embryonic dorsal root ganglia (DRG) dissected from embryonic day 14 (E14) to day 17 (E17) Sprague Dawley rats, were plated on poly-L-lysine (100 μg/ml)-coated cover slips for 2 weeks and grown in Neurobasal medium supplemented with B27 (Life technologies). To remove proliferating glial cells, cultures were pulsed twice with fluorodeoxyuridine (20 μM) from days 2-6 and from days 8-10. Then rat A2B5+ oligodendrocytes were added to DRG neuron drop cultures in the presence or absence of compounds at 37° C. with 5% CO2 for 13 days. The culture media (Neurobasal medium supplemented with B27 and 100 ng/ml nerve growth factor (NGF)) with fresh compounds were changed twice per week. Myelination is determined by Western blotting to quantify MBP level.

[2] = test system: LPC induced spinal cord demyelination; experiment: LPC induced spinal cord demyelination model; type: in vivo, rat; conditions: oral, daily from Day 3, sacrifice Day 9
[3] = test system: LPC induced corpus callosum demyelination; experiment: LPC induced corpus callosum demyelination model; type: in vivo; conditions: rat LPC corpus callosum model
[4] = test system: cuprizone demyelination in the corpus callosum; experiment: Cuprizone/rapamycin demyelination model; type: in vivo, mouse; conditions: oral gavage daily in the last 2 weeks of cuprizone/rapamycin treatment
Protocol: Nine week-old C57/BL6 mice were fed with chow pellets containing 0.3% cuprizone (Harlan) and injected with rapamycin intraperitoneally for 6 weeks (10 mg/kg, 5 days/week). Animals were treated with Compound 1 by oral gavage daily in the last 2 weeks of cuprizone/rapamycin treatment. Animals were sacrificed at the end of the last treatment and brains were dissected to determine the effect of Compound 1 on remyelination in the corpus callosum (white matter) and cerebral cortex regions. Coronal slices (septostriatal section, 1 mm thickness) through the corpus callosum were cut, then cut on the midsagittal plane and embedded in epon, oriented to visualize the entire cross-section of the midsagittal corpus callosum. Myelinated axons in the corpus callosum lesions were quantified by toluidine blue staining. ** p<0.01, *** p<0.001. […] Error bars denote the standard error of the mean. N=39 for the study.

[5] = test system: human OPC-rat DRG co-culture; experiment: Human OPC-rat DRG co-culture myelination (MBP ICC); type: cell-based; conditions: 0.02, 0.2, or 2 μM vs DMSO control
Protocol: Embryonic dorsal root ganglia (DRG), dissected from embryonic day 14 (E14) to day 17 (E17) Sprague Dawley rats, were plated on poly-L-lysine (100 μg/ml)-coated cover slips for 2 weeks and grown in Neurobasal medium supplemented with B27 (Life Technologies). To remove proliferating glial cells, cultures were pulsed twice with fluorodeoxyuridine (20 μM) from days 2-6 and from days 8 to 10. Then human OPCs, prepared as described above, were added to DRG neuron drop cultures. The culture media for rat OPC-DRG co-culture is Neurobasal medium supplemented with B27 and 100 ng/ml NGF with fresh compounds changed twice per week. The culture media for human OPC-rat DRG co-culture is the proliferation media for human OPCs without purmorphamine and FGF/PDGF. Compound 1 (0.02, 0.2, or 2 μM) or DMSO control treatment started 1 day after OPCs were added to DRG culture. To visualize myelination, cultures were fixed by 4% paraformaldehyde (PFA) and labeled with anti-myelin basic protein (MBP) antibodies to identify changes in myelination by ICC.

[6] = test system: circulating cholesterol; experiment: Population PK/PD model (Monolix) of circulating cholesterol vs Compound 1 plasma concentration; set-up: species or system human
Source text: Based on these observations, a population PK/PD model was developed using Monolix to describe circulating cholesterol concentration as a function of plasma concentration of Compound 1 and exposure. The model was developed from cholesterol data from the study described above (Study 1) as well as two additional clinical studies (Study 2 and Study 3) in healthy volunteers. In Study 2, thirty healthy volunteers received a single oral dose of Compound 1 with 6 individual participants per cohort receiving 3 mg (Cohort 1), 10 mg (Cohort 2), 30 mg (Cohort 3), 60 mg (Cohort 4), 100 mg (Cohort 5). There were also 9 participants who received placebo in the study. In Study 3, 8 healthy adult volunteers received a single dose of 30 mg of Compound 1.

[7] = Plasma concentration of Compound 1 in healthy volunteers; type: in vivo, human
Protocol: (§1) Forty-two healthy volunteers received Compound 1 QD for 28 days (or before early withdrawal), with 6 individual participants per cohort receiving 1 mg (Cohort 1), 3 mg (Cohort 2), 10 mg (Cohort 3), 30 mg (Cohort 4), 60 mg loading dose with 10 mg maintenance dosing (Cohort 5) Compound 1, 60 mg (Cohort 6), or 90 mg loading dose on Day 1 and Day 2 with 30 mg maintenance dosing (Cohort 7). There were also 14 participants who received placebo in the study; 1 participant in Cohort 4 was misdosed on Day 19 and appeared to have received at least one 30 mg dose of Compound 1. The following protocol deviations were reported for participants in Cohorts 1 through 5: they received predose water ad lib (not restricted for 1 hour before and 1 hour after dose) and a meal administered 30 minutes postdose (not 4 hours postdose). A total of 49 participants completed treatment, including 37 participants who received active treatment.
Based on these observations, a population PK/PD model was developed using Monolix to describe circulating cholesterol concentration as a function of plasma concentration of Compound 1 and exposure. The model was developed from cholesterol data from the study described above (Study 1) as well as two additional clinical studies (Study 2 and Study 3) in healthy volunteers. […]

[8] = test system: human iPSC-derived OPCs; experiment: Human iPSC-derived OPC differentiation (MBP+ cells); type: cell-based; conditions: 0.02 and 0.2 μM, 40 days
Protocol: Human induced pluripotent stem cell (iPSC) derived OPCs were maintained in proliferation media, composed of advanced DMEM-F12 supplemented with N2, B27, Glutamax, […] heparin (Sigma), 1 μM purmorphamine (Merck), 20 ng/ml FGF/PDGFa (Peprotech), 10 ng/ml IGF (Peprotech), and 60 ng/ml T3 (Sigma). To allow OPC differentiation, purmorphamine and FGF/PDGF were removed from the culture media. Compound 1 (0.02 and 0.2 μM) was incubated with human iPSC-derived OPCs in the differentiation media for 40 days.

[9] = test system: circulating cholesterol; experiment: 28-day multiple-dose study in healthy volunteers: circulating cholesterol and serum sterols; type: in vivo, human
Protocol: as §1
(§2) Participants received the first dose of study treatment (Compound 1 or placebo) on Day 1 and continued to receive once-daily study treatment through Day 28. Participants remained in the clinic throughout the dosing period. Participants were discharged on Day 29 after completing all assessments.
Blood was periodically withdrawn from each volunteer and immediately stored at −80° C. For measuring metabolite concentrations in human serum, the samples were centrifuged and the resulting supernatant was used for further analysis.
Free oxysterols were extracted from the samples with methanol using the Biocrates Kit filter plate. The plate was loaded with an internal standard mixture beforehand. The metabolite concentrations were determined by UHPLC-MS/MS with multiple reaction monitoring (MRM) in a positive mode using a SCIEX API 5500 QTRAP® (AB SCIEX, Darmstadt, German) instrument with electrospray ionization (ESI). Data were quantitated using appropriate mass spectrometry software and imported in Biocrates Met/DQ™ software for further analysis.

[10] = test system: rat OPCs; experiment: Sterol metabolite levels in rat OPC cultures (Metabolon HD4); type: cell-based; conditions: rat OPC culture
Protocol: Enriched populations of oligodendrocytes from female Sprague Dawley postnatal day 2 (P2) rats were grown in culture. Briefly, the forebrain was dissected and placed in Hank's buffered salt solution (HBSS) (Life technologies). The tissue was cut into 1 mm fragments and incubated at 37° C. for 15 min in 0.01% trypsin and 10 μg/ml DNase. Dissociated cells were plated on poly-D-lysine (PDL)-coated T75 tissue culture flasks and grown at 37° C. for 10 days in Dulbecco's Modified Eagle Medium (DMEM) with 20% fetal calf serum (Life technologies). Oligodendrocyte precursors (A2B5+) were collected by shaking the flask overnight at 200 rpm at 37° C., resulting in a 95% pure population. Cultures were maintained in a defined growth medium (high glucose DMEM, 0.1% BSA, 50 ug/ml Apo-transferrin, 5 ug/ml insulin, 30 nM sodium selenite, 10 nM biotin and hydrocortisone) with 10 ng/ml fibroblast growth factor/platelet-derived growth factor (FGF/PDGF) (Peprotech) for 2-3 days. For assessing the ability of Compound 1 to promote the differentiation of rat A2B5+ progenitor cells into mature myelin basic protein positive (MBP+) myelinating oligodendrocytes, A2B5+ cells were plated into 10-cm PDL coated culture plates in FGF/PDGF free growth medium supplemented with 10 ng/ml CNTF and 15 nM T3 and were immediately treated for with Compound 1. The cell pellets were collected at 24 hours and 72 hours in culture and stored at −80° C. The cell pellets were subsequently shipped to Metabolon (Morrisville, NC, USA) and maintained at −80° C. during shipping and storage until processed. The cell pellet samples were extracted with methanol under vigorous shaking for 2 min (Glen Mills GenoGrinder 2000) to precipitate protein and dissociate small molecules bound to protein or trapped in the precipitated protein matrix, followed by centrifugation to recover chemically diverse metabolites. The resulting extract were next aliquot and analyzed on Metabolon's HD4 platform. Several types of quality control samples, including recovery standards added prior to extraction, technical replicates from a pool combined from each experimental sample, process and solvent blanks, and spiked a cocktail of QC standards, were applied during sample preparation and analysis for quality assessment and filtering failed samples.

[11] = target: T1, sphingosine-1-phosphate receptor 4 (S1P4) (Homo sapiens, UniProt O95977); conditions: cited from earlier work
T1 sequence (O95977 1-384): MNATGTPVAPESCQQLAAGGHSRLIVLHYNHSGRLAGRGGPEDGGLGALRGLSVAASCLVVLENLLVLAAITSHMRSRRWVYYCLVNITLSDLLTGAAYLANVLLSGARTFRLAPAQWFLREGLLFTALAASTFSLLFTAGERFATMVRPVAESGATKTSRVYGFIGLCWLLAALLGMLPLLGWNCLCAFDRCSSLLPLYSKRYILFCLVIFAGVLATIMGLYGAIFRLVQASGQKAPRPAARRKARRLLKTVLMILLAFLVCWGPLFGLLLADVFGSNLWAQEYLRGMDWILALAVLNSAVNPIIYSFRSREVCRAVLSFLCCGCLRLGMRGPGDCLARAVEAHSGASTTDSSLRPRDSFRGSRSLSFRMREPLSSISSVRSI

[12] = test system: neutrophils; experiment: Neutrophil and monocyte counts in the healthy volunteer study; type: in vivo, human
Protocol: as §1, §2

steady-state concentration of Compound 1 ([7]; daily dose of 60 mg): about 3 μg/mL | time of increase to steady-state concentrations of Compound 1 in plasma ([7]; daily dosing): approximately 15 days | other participants with decline in absolute neutrophil count ([12]; Cohort 4, 30 mg): 6 participants | other participants with decline in absolute neutrophil count ([12]; Cohort 5, 60 mg loading dose followed by 10 mg maintenance dose): 6 participants | other participants with decline in absolute neutrophil count ([12]; Cohort 6): 5 participants | other participants with decline in absolute neutrophil count ([12]; Cohort 7): 5 participants | other participants with decline in absolute neutrophil count ([12]; all doses ≥30 mg): 22 participants | absolute neutrophil count from baseline ([12]; doses ≥30 mg): dose-dependent decline | extent of neutrophil count decline ([12]; low doses <30 mg, Cohorts 1, 2, and 3): indistinguishable from placebo control | participants who developed CTCAE grade 3 neutropenia ([12]; whole study of Example 1): Two of 56
SMILES: CC[C@H]1CC[C@@H](Oc2ccc3cc(CN4CCC(C(=O)O)CC4)ccc3c2)CC1 [Compound 1, 1-((6-(((1s,4s)-4-ethylcyclohexyl)oxy)naphthalen-2-yl)methyl)piperidine-4-carboxylic acid]
myelination (MBP level by Western blotting) [1]: promoted myelination in OPC/DRG co-culture assay in a dose-dependent manner | dose for 90% of maximum observed biologic effect (ED90) [2]: 3 mg/kg | minimal efficacious dose (remyelinated axon fibers in the lesions) [2]: 0.3 mg/kg | remyelination (myelinated axons, toluidine blue) [2]: enhanced remyelination in a dose dependent manner | remyelination [3]: enhanced remyelination | remyelination (myelinated axons in corpus callosum lesions) [4]: dose dependent enhancement of remyelination | amount of MBP+ myelinated axon clusters relative to control [5]: increased | concentration of circulating cholesterol in the model ([6]; by daily dose): reduced at all daily doses higher than 10 mg | predicted decrease in circulating cholesterol ([6]; model prediction, 60 mg QD): approximately 35% | EC50 for reduction in circulating cholesterol concentration ([6]; population PK/PD model, plasma concentration of Compound 1): about 3 μg/mL | number of MBP+ cells relative to control [8]: increased | 7-dehydrocholesterol (7-DHC) level ([9]; healthy human volunteers): causes accumulation of 7-dehydrocholesterol | average decrease in total cholesterol ([9]; healthy volunteers, 60 mg dose, Study 1): approximately 20% | total circulating cholesterol ([9]; healthy volunteers, QD over 28 days, FIG. 1 (10, 30, 60 mg per day vs placebo)): gradual, time- and dose-dependent reduction | 7-DHC vs vehicle control ([10]; 24 hours): 8.3 folds | cholesterol vs vehicle control ([10]; 24 hours): 0.64 folds | desmosterol vs vehicle control ([10]; 24 hours): 0.44 folds | 7-DHC vs vehicle control ([10]; 72 hours): 12.86 folds | cholesterol vs vehicle control ([10]; 72 hours): insignificant change | desmosterol vs vehicle control ([10]; 72 hours): 0.4 folds | S1P4 activity [11]: known inhibitor | absolute monocyte counts ([12]; 60 mg QD, except the patient who discontinued): remained throughout the study in the normal range | participants with neutropenia AE leading to discontinuation ([12]; Cohort 6, 60 mg): 1 participant | participants with neutropenia AE leading to discontinuation ([12]; Cohort 7, 90 mg loading dose followed by 30 mg maintenance dose): 1 participant

From patent US20230390270A1, “METHODS FOR TREATING REMITTING MULTIPLE SCLEROSIS” (BIOGEN MA INC., priority 2020, published 2023)
